Data published in the supplement of paper PMC10307832.

Experiments:
Assay in all cases: relative viability (nuclei count vs DMSO), 5 days (fraction); higher = more cells survive
HCC-44 = tested on: HCC-44
Procedure, shortened: (§1)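 A single step with final 0.05% Triton X-100, 1% formaldehyde and 1 ug/ml Hoechst fixed the cells and stained nuclei 5 days after treatment. Lung cancer cell lines in 1536-well plates had been treated by pin tool the day after seeding with one drug alone or a fixed anchor-drug dose plus five library-drug doses (not always all listed) in √10 steps, and nuclei were counted on 4× images. Relative viability is the ratio of nuclei in treated wells to nuclei in vehicle wells, taken as the median of duplicate plates.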

NCI-H2023 = tested on: NCI-H2023
Procedure, shortened: as §1

LC-2-ad = tested on: LC-2-ad
Procedure, shortened: as §1

UMC-11 = tested on: UMC-11
Procedure, shortened: as §1

ABC-1 = tested on: ABC-1
Procedure, shortened: as §1

PC-14 = tested on: PC-14
Procedure, shortened: as §1

SW 1573 = tested on: SW 1573
Procedure, shortened: as §1

COR-L23 = tested on: COR-L23
Procedure, shortened: as §1

NCI-H2085 = tested on: NCI-H2085
Procedure, shortened: as §1

NCI-H358 = tested on: NCI-H358
Procedure, shortened: as §1

EPLC-272H = tested on: EPLC-272H
Procedure, shortened: as §1

NCI-H1993 = tested on: NCI-H1993
Procedure, shortened: as §1

HOP-62 = tested on: HOP-62
Procedure, shortened: as §1

NCI-H1355 = tested on: NCI-H1355
Procedure, shortened: as §1

NCI-H838 = tested on: NCI-H838
Procedure, shortened: as §1

LU99A = tested on: LU99A
Procedure, shortened: as §1

NCI-H650 = tested on: NCI-H650
Procedure, shortened: as §1

HCC-15 = tested on: HCC-15
Procedure, shortened: as §1

NCI-H1915 = tested on: NCI-H1915
Procedure, shortened: as §1

HARA = tested on: HARA
Procedure, shortened: as §1

NCI-H2347 = tested on: NCI-H2347
Procedure, shortened: as §1

NCI-H1651 = tested on: NCI-H1651
Procedure, shortened: as §1

NCI-H2126 = tested on: NCI-H2126
Procedure, shortened: as §1

COc1nc(C)cnc1NS(=O)(=O)c1cccnc1-c1ccc(-c2nnco2)cc1 [Zibotentan] + C[C@@H](Oc1cc(-c2cnn(C3CCNCC3)c2)cnc1N)c1c(Cl)ccc(F)c1Cl [Crizotinib] (partner 1 µM)
relative viability (HCC-44; first compound 0.08 µM): 0.777 | relative viability (HCC-44; first compound 0.253 µM): 0.761 | relative viability (HCC-44; first compound 0.8 µM): 0.872 | relative viability (HCC-44; first compound 2.53 µM): 0.772 | relative viability (NCI-H2023; first compound 0.08 µM): 0.605 | relative viability (NCI-H2023; first compound 0.253 µM): 0.475 | relative viability (NCI-H2023; first compound 0.8 µM): 0.72 | relative viability (NCI-H2023; first compound 2.53 µM): 0.631 | relative viability (LC-2-ad; first compound 0.08 µM): 0.511 | relative viability (LC-2-ad; first compound 0.253 µM): 0.448 | relative viability (LC-2-ad; first compound 0.8 µM): 0.493 | relative viability (LC-2-ad; first compound 2.53 µM): 0.469 | relative viability (UMC-11; first compound 0.08 µM): 0.606 | relative viability (UMC-11; first compound 0.253 µM): 0.64 | relative viability (UMC-11; first compound 0.8 µM): 0.62 | relative viability (UMC-11; first compound 2.53 µM): 0.568 | relative viability (ABC-1; first compound 0.08 µM): 1.45 | relative viability (ABC-1; first compound 0.253 µM): 0.847 | relative viability (ABC-1; first compound 0.8 µM): 1.07 | relative viability (ABC-1; first compound 2.53 µM): 0.987 | relative viability (PC-14; first compound 0.08 µM): 0.907 | relative viability (PC-14; first compound 0.253 µM): 0.882 | relative viability (PC-14; first compound 0.8 µM): 0.968 | relative viability (PC-14; first compound 2.53 µM): 0.899 | relative viability (SW 1573; first compound 0.08 µM): 0.923 | relative viability (SW 1573; first compound 0.253 µM): 0.745 | relative viability (SW 1573; first compound 0.8 µM): 0.822 | relative viability (SW 1573; first compound 2.53 µM): 0.856 | relative viability (COR-L23; first compound 0.08 µM): 0.838 | relative viability (COR-L23; first compound 0.253 µM): 0.65 | relative viability (COR-L23; first compound 0.8 µM): 0.68 | relative viability (COR-L23; first compound 2.53 µM): 0.758 | relative viability (NCI-H2085; first compound 0.08 µM): 1.03 | relative viability (NCI-H2085; first compound 0.253 µM): 0.815 | relative viability (NCI-H2085; first compound 0.8 µM): 0.938 | relative viability (NCI-H2085; first compound 2.53 µM): 0.925 | relative viability (NCI-H358; first compound 0.08 µM): 0.581 | relative viability (NCI-H358; first compound 0.8 µM): 0.665 | relative viability (NCI-H358; first compound 2.53 µM): 0.617 | relative viability (EPLC-272H; first compound 0.08 µM): 0.841 | relative viability (EPLC-272H; first compound 0.253 µM): 0.841 | relative viability (EPLC-272H; first compound 0.8 µM): 1.38 | relative viability (EPLC-272H; first compound 2.53 µM): 0.951 | relative viability (NCI-H1993; first compound 0.253 µM): 0.915 | relative viability (NCI-H1993; first compound 0.8 µM): 0.73 | relative viability (NCI-H1993; first compound 2.53 µM): 1.04 | relative viability (HOP-62; first compound 0.08 µM): 0.854 | relative viability (HOP-62; first compound 0.253 µM): 0.862 | relative viability (HOP-62; first compound 0.8 µM): 1.02 | relative viability (HOP-62; first compound 2.53 µM): 1.06 | relative viability (NCI-H1355; first compound 0.08 µM): 1.07 | relative viability (NCI-H1355; first compound 0.253 µM): 1.07 | relative viability (NCI-H1355; first compound 0.8 µM): 1.12 | relative viability (NCI-H1355; first compound 2.53 µM): 0.974 | relative viability (NCI-H838; first compound 0.08 µM): 0.918 | relative viability (NCI-H838; first compound 0.253 µM): 0.826 | relative viability (NCI-H838; first compound 0.8 µM): 0.82 | relative viability (NCI-H838; first compound 2.53 µM): 0.848 | relative viability (LU99A; first compound 0.08 µM): 0.537 | relative viability (LU99A; first compound 0.253 µM): 0.527 | relative viability (LU99A; first compound 0.8 µM): 0.645 | relative viability (LU99A; first compound 2.53 µM): 0.617 | relative viability (NCI-H650; first compound 0.08 µM): 0.856 | relative viability (NCI-H650; first compound 0.253 µM): 0.661 | relative viability (NCI-H650; first compound 0.8 µM): 0.705 | relative viability (NCI-H650; first compound 2.53 µM): 0.792 | relative viability (HCC-15; first compound 0.08 µM): 0.918 | relative viability (HCC-15; first compound 0.253 µM): 0.748 | relative viability (HCC-15; first compound 0.8 µM): 0.843 | relative viability (HCC-15; first compound 2.53 µM): 0.885 | relative viability (NCI-H1915; first compound 0.08 µM): 0.968 | relative viability (NCI-H1915; first compound 0.253 µM): 0.879 | relative viability (NCI-H1915; first compound 0.8 µM): 0.957 | relative viability (NCI-H1915; first compound 2.53 µM): 0.945 | relative viability (HARA; first compound 0.08 µM): 1.03 | relative viability (HARA; first compound 0.253 µM): 0.993 | relative viability (HARA; first compound 0.8 µM): 1.02 | relative viability (HARA; first compound 2.53 µM): 1.18 | relative viability (NCI-H2347; first compound 0.08 µM): 0.706 | relative viability (NCI-H2347; first compound 0.253 µM): 0.476 | relative viability (NCI-H2347; first compound 0.8 µM): 0.715 | relative viability (NCI-H2347; first compound 2.53 µM): 0.672 | relative viability (NCI-H1651; first compound 0.08 µM): 0.962 | relative viability (NCI-H1651; first compound 0.253 µM): 0.823 | relative viability (NCI-H1651; first compound 0.8 µM): 0.837 | relative viability (NCI-H1651; first compound 2.53 µM): 0.862 | relative viability (NCI-H2126; first compound 0.08 µM): 1.01 | relative viability (NCI-H2126; first compound 0.253 µM): 0.94 | relative viability (NCI-H2126; first compound 0.8 µM): 0.992 | relative viability (NCI-H2126; first compound 2.53 µM): 1.05
